{"source": "patent US6440995B1", "about": "“Quinolin-4-yl derivatives” (Hoffman-La Roche Inc., priority 1999, dated 2002)", "key": {"NMDA receptor": {"biological_target": "T1, NMDA receptor (Rattus norvegicus, UniProt P35439+Q00960)", "T1 construct": "Membranes were prepared by homogenization of the whole brain minus cerebellum and medulla oblongata; from tissue; host or cells: rat whole brain minus cerebellum and medulla oblongata, membranes", "T1 sequence (Q00960 27-1482, other chains not shown)": "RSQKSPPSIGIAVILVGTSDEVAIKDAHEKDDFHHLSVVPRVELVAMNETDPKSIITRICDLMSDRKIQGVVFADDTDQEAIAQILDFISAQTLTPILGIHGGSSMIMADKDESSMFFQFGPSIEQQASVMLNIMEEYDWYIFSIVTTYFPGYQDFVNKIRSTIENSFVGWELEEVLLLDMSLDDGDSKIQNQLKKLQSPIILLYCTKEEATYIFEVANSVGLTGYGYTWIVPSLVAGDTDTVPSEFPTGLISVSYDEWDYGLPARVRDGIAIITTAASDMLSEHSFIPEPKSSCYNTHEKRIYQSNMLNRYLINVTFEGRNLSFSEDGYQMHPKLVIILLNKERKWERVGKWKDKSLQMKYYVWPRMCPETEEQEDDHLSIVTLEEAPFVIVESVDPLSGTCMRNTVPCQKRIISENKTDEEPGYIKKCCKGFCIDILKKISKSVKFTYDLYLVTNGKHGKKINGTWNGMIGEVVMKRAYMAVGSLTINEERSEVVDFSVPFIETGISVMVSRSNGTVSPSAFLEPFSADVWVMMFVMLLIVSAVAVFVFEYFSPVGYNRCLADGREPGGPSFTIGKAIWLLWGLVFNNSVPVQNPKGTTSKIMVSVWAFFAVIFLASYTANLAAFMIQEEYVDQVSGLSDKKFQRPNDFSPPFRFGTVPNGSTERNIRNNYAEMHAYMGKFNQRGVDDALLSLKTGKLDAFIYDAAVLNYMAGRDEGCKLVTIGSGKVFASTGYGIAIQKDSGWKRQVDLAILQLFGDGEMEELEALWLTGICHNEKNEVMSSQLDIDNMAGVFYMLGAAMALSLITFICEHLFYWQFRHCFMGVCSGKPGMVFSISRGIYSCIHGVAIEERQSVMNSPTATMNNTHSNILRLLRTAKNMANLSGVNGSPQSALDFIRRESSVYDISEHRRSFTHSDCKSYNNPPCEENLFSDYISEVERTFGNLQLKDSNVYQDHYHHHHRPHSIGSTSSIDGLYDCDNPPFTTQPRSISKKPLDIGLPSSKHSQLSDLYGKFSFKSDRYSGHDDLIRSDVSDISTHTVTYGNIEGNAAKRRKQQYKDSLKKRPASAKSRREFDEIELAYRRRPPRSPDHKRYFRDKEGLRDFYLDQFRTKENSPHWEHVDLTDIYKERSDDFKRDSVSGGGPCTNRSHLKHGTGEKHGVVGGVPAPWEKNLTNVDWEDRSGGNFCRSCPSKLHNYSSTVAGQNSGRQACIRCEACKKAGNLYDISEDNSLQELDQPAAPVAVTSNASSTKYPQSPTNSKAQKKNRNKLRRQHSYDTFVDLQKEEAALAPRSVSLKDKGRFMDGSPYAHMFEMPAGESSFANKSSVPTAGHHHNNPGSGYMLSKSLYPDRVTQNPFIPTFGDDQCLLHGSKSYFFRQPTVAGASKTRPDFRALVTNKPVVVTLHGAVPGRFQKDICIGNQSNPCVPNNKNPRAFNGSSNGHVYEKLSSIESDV", "experiment": "3H-Ro 25-6981 binding (displacement, rat brain membranes)", "conditions": "displacement of 5 nM 3H-Ro 25-6981; rat whole brain minus cerebellum and medulla oblongata membranes; 2 hours at 4° C., pH 7.4", "procedure": "3H-Ro 25-6981 binding (Ro 25-6981 is [R-(R*,S*)]-a-(4-Hydroxy-phenyl)-b-methyl-4-(phenyl-methyl)-1-piperidine propanol)\nMale Füllinsdorf albino rats weighing between 150-200 g were used. Membranes were prepared by homogenization of the whole brain minus cerebellum and medulla oblongata with a Polytron (10 000 rpm, 30 seconds), in 25 volumes of a cold Tris-HCl 50 mM, EDTA 10 mM, pH 7.1 buffer. The homogenate was centrifuged at 48.000 g for 10 minutes at 4° C. The pellet was resuspended using the Polytron in the same volume of buffer and the homogenate was incubated at 37° C. for 10 minutes. After centrifugation the pellet was homogenized in the same buffer and frozen at −80° C. for at least 16 hours but not more than 10 days. For the binding assay the homogenate was thawed at 37° C., centrifuged and the pellet was washed three times as above in a Tris-HCl 5 mM, pH 7.4 cold buffer. The final pellet was resuspended in the same buffer and used at a final concentration of […].\n3H-Ro 25-6981 binding experiments were performed using a Tris-HCl 50 mM, pH 7.4 buffer. For displacement experiments 5 nM of 3H-Ro 25-6981 were used and non specific binding was measured using 10 mM of tetrahydroisoquinoline and usually it accounts for 10% of the total. The incubation time was 2 hours at 4° C. and the assay was stopped by filtration on Whatmann GF/B glass fiber filters (Unifilter-96, Packard, Zürich, Switzerland). The filters were washed 5 times with cold buffer. The radioactivity on the filter was counted on a Packard Top-count microplate scintillation counter after addition of […] of microscint 40 (Canberra Packard S.A., Zürich, Switzerland).\nThe effects of compounds were measured using a minimum of 8 concentrations and repeated at least once. The pooled normalized values were analyzed using a non-linear regression calculation program which provide IC50) with their relative upper and lower 95% confidence limits (RS1, BBN, USA)."}}, "note": "Structures can show the parent of a compound that is named as a salt.", "data": [{"smiles": "Cc1ccc(-c2cc(NC[C@H](C)O)c3ccc(C)cc3n2)cc1.Cl", "values": [{"measurement": "melting point", "value": "264 to 267", "unit": "°C"}]}, {"smiles": "C[C@H](O)CNc1cc(-c2ccc3c(c2)CCO3)nc2ccccc12.Cl", "values": [{"measurement": "melting point", "value": "236 to 242", "unit": "°C"}]}, {"smiles": "Cl.OCCNc1cc(-c2ccc(Cl)cc2)nc2ccccc12", "values": [{"measurement": "melting point", "value": "262 to 264", "unit": "°C"}]}, {"smiles": "COc1ccc(-c2cc(NCCO)c3ccc(C)cc3n2)cc1.Cl", "values": [{"measurement": "melting point", "value": "233 to 238", "unit": "°C"}]}, {"smiles": "COc1cccc2c(NCCO)cc(-c3ccccc3)nc12.Cl", "values": [{"measurement": "melting point", "value": "205 to 209", "unit": "°C"}]}, {"smiles": "Cc1ccc(-c2cc(NCCO)c3ccc(C)cc3n2)cc1.Cl", "values": [{"measurement": "melting point", "value": "260 to 263", "unit": "°C"}]}, {"smiles": "CCNCC(O)COc1cc(-c2ccccc2)nc2ccccc12.Cl", "note": "(stereo not shown)", "values": [{"measurement": "melting point", "value": "170 to 174", "unit": "°C"}]}, {"smiles": "CNCC(O)COc1cc(-c2ccc(C)cc2)nc2cc(C)ccc12", "note": "(racemic)", "values": [{"measurement": "melting point", "value": "146 to 150", "unit": "°C"}]}, {"smiles": "CNCC(O)COc1cc(-c2ccccc2)nc2cc(Cl)ccc12.Cl", "note": "(racemic)", "values": [{"measurement": "melting point", "value": "192 to 193", "unit": "°C"}]}, {"smiles": "CNCC(O)COc1cc(-c2ccsc2)nc2ccccc12.Cl", "note": "(racemic)", "values": [{"measurement": "melting point", "value": "236 to 238", "unit": "°C"}]}, {"smiles": "O=C(O)/C=C/C(=O)O.OCC(O)CNc1cc(/C=C/c2ccccc2)nc2ccccc12", "note": "(racemic)", "values": [{"measurement": "melting point", "value": "220 to 222", "unit": "°C"}]}, {"smiles": "Cc1ccc(-c2cc(NCC(O)CO)c3ccccc3n2)cc1Cl.Cl", "note": "(racemic)", "values": [{"measurement": "melting point", "value": "230 to 231", "unit": "°C"}]}, {"smiles": "Cl.Cl.NCC(O)CNc1cc(-c2ccc(Cl)cc2)nc2ccccc12", "note": "(racemic)", "values": [{"measurement": "melting point", "value": "283 to 287", "unit": "°C"}]}, {"smiles": "Cl.OCC(O)CNc1cc(N2Cc3ccccc3C2)nc2ccccc12", "note": "(racemic)", "values": [{"measurement": "melting point", "value": "295 to 301", "unit": "°C"}]}, {"smiles": "Cl.NCC(O)CNc1cc(-c2ccccc2)nc2ccccc12", "note": "(racemic)", "values": [{"measurement": "melting point", "value": "291 to 294", "unit": "°C"}]}, {"smiles": "COc1cccc2c(NCC(O)CO)cc(-c3ccccc3)nc12.Cl", "note": "(racemic)", "values": [{"measurement": "melting point", "value": "110 to 116", "unit": "°C"}]}, {"smiles": "Cl.OCC(O)CNc1cc(-c2cc3ccccc3o2)nc2ccccc12", "note": "(racemic)", "values": [{"measurement": "melting point", "value": "263 to 265", "unit": "°C"}]}, {"smiles": "Cc1cccc(-c2cc(NCC(O)CO)c3ccccc3n2)c1.Cl", "note": "(racemic)", "values": [{"measurement": "melting point", "value": "208 to 215", "unit": "°C"}]}, {"smiles": "NCC(O)CNc1cc(-c2ccc(Cl)cc2)nc2ccccc12", "note": "(racemic)", "values": [{"measurement": "melting point", "value": "283 to 287", "unit": "°C"}]}, {"smiles": "Cl.OCC(O)CNc1cc(-c2ccccc2)nc2ccccc12", "note": "(racemic)", "values": [{"measurement": "melting point", "value": "225 to 227", "unit": "°C"}]}, {"smiles": "CC(O)CNc1cc(-c2ccccc2)nc2ccccc12.Cl", "note": "(racemic)", "values": [{"measurement": "melting point", "value": "251 to 253", "unit": "°C"}]}, {"smiles": "Cl.OCC(O)CNc1cc(CCc2ccccc2)nc2ccccc12", "note": "(racemic)", "values": [{"measurement": "melting point", "value": "143 to 145", "unit": "°C"}]}, {"smiles": "CC(C)NCC(O)COc1cc(-c2ccccc2)nc2ccccc12", "note": "(racemic)", "values": [{"measurement": "melting point", "value": "109 to 111", "unit": "°C"}]}, {"smiles": "CNCC(O)COc1cc(-c2ccc(OC)cc2)nc2cc(C)ccc12", "note": "(racemic)", "values": [{"measurement": "melting point", "value": "140 to 142", "unit": "°C"}]}, {"smiles": "OCC(O)CNc1cc(-c2ccc3c(c2)CCO3)nc2ccccc12", "note": "(racemic) (as salt: hydrochloride) [Example 32, (RS)-3-[2-(2,3-Dihydro-benzofuran-5-yl)-quinolin-4-ylamino]-propane-1,2-diol hydrochloride]", "values": [{"measurement": "melting point", "value": "267 to 270", "unit": "°C"}]}, {"smiles": "Cc1ccc(-c2cc(NCC(O)CN)c3ccccc3n2)cc1.Cl", "note": "(racemic) [Example 2, (RS)-1-Amino-3-(2-p-tolyl-quinolin-4-ylamino)-propan-2-ol hydrochloride]", "values": [{"measurement": "IC50", "setting": "NMDA receptor", "value": 0.02, "unit": "µM"}, {"measurement": "melting point", "value": "264 to 272", "unit": "°C"}]}, {"smiles": "NCC(O)CNc1cc(N2CCc3ccccc3C2)nc2ccccc12", "note": "(racemic) [Example 10, (RS)-1-Amino-3-[2-(3,4-dihydro-1H-isoquinolin-2-yl)-quinolin-4-ylamino]-propan-2-ol hydrochloride]", "values": [{"measurement": "IC50", "setting": "NMDA receptor", "value": 0.03, "unit": "µM"}]}, {"smiles": "OCC(O)CNc1cc(-c2ccc3c(c2)CCO3)nc2ccccc12", "note": "(racemic) [Example 32, (RS)-3-[2-(2,3-Dihydro-benzofuran-5-yl)-quinolin-4-ylamino]-propane-1,2-diol hydrochloride]", "values": [{"measurement": "IC50", "setting": "NMDA receptor", "value": 0.066, "unit": "µM"}]}, {"smiles": "CNCC(O)CNc1cc(-c2ccc(OC)cc2)nc2ccccc12", "note": "(racemic) [Example 77, (RS)-1-[2-(4-Methoxy-phenyl)-quinolin-4-ylamino]-3-methylamino-propan-2-ol hydrochloride]", "values": [{"measurement": "IC50", "setting": "NMDA receptor", "value": 0.058, "unit": "µM"}]}, {"smiles": "Cl.OCCNc1cc(-c2ccc3c(c2)CCCC3)nc2ccccc12", "note": "[Example 18, 2-[2-(5,6,7,8-Tetrahydro-naphthalen-2-yl)-quinolin-4-ylamino]-ethanol hydrochloride]", "values": [{"measurement": "IC50", "setting": "NMDA receptor", "value": 0.04, "unit": "µM"}, {"measurement": "melting point", "value": "250 to 252", "unit": "°C"}]}, {"smiles": "COc1ccc(-c2cc(N(C)CCO)c3ccccc3n2)cc1.Cl", "note": "[Example 46, 2-{[2-(4-Methoxy-phenyl)-quinolin-4-yl]-methyl-amino}-ethanol hydrochloride]", "values": [{"measurement": "IC50", "setting": "NMDA receptor", "value": 0.13, "unit": "µM"}, {"measurement": "melting point", "value": "201 to 204", "unit": "°C"}]}]}
